In ChEMBL document CHEMBL1649421, “New drug-like hydroxyphenylnaphthol steroidomimetics as potent and selective 17β-hydroxysteroid dehydrogenase type 1 inhibitors for the treatment of estrogen-dependent diseases” (J Med Chem, 2011):

Assays:
[1] = target: T1, 17-beta-hydroxysteroid dehydrogenase type 2 (Homo sapiens) (UniProt P37059); assay: Inhibition of [3H]E2 binding to human recombinant 17beta-HSD2 expressed in baculovirus-infected Sf9 cells at 1 uM after 10 mins by fluid scintillation counting
T1 sequence (whole entry): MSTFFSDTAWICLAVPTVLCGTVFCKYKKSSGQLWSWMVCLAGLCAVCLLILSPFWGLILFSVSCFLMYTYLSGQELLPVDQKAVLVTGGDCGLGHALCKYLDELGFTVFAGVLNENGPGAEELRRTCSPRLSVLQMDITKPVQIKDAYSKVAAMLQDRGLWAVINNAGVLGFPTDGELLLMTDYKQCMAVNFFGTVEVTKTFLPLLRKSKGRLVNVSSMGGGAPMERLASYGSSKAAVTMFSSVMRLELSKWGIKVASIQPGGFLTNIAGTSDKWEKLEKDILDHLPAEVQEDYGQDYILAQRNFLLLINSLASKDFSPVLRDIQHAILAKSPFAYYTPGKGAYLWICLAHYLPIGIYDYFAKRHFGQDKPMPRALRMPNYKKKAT

[2] = target: T1, 17-beta-hydroxysteroid dehydrogenase type 2 (Homo sapiens); assay: Inhibition of [3H]E2 binding to human recombinant 17beta-HSD2 expressed in baculovirus-infected Sf9 cells at 100 nM after 10 mins by fluid scintillation counting
[3] = target: T2, 17-beta-hydroxysteroid dehydrogenase type 1 (Homo sapiens) (UniProt P14061); assay: Inhibition of [3H]E1 binding to human recombinant 17beta-HSD1 expressed in baculovirus-infected Sf9 cells at 100 nM after 10 mins by fluid scintillation counting
T2 sequence (whole entry): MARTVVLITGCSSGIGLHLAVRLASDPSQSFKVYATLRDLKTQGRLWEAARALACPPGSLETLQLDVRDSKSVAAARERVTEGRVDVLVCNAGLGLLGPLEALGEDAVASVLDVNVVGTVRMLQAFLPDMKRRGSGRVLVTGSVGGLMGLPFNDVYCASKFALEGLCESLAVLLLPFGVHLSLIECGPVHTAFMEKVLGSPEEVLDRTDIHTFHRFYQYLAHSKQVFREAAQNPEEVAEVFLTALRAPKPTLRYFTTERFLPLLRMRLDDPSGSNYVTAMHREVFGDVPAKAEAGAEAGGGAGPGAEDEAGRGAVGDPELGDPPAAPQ

[4] = Apparent permeability across human Caco2 cells after 180 mins by LC-MS/MS analysis; type: ADME, cell-based; conditions: Caco-2
[5] = target: T3, Estrogen receptor (Homo sapiens) (UniProt P03372); assay: Displacement of [3H]E2 from human recombinant ERalpha by liquid scintillation counting relative to estradiol
T3 sequence (whole entry): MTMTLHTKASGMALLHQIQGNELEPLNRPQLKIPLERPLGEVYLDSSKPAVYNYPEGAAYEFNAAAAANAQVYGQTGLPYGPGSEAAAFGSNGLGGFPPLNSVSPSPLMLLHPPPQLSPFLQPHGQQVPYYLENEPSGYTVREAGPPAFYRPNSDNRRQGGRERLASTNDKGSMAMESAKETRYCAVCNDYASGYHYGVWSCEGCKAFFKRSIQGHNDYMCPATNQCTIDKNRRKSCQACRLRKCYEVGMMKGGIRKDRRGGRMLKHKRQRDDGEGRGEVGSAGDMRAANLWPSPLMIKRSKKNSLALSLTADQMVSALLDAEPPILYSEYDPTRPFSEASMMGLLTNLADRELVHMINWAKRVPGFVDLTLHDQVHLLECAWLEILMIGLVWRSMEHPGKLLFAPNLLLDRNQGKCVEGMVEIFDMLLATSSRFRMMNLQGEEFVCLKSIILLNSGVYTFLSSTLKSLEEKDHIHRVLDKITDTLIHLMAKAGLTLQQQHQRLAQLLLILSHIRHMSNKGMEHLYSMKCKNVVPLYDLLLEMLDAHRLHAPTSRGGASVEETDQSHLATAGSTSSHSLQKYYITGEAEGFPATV

[6] = target: Estrogen receptor beta (Homo sapiens) (UniProt Q92731); assay: Displacement of [3H]E2 from human recombinant ERbeta by liquid scintillation counting relative to estradiol
[7] = organism: Homo sapiens; assay: Selectivity ratio of IC50 for human placental 17beta-HSD2 to IC50 for human placental 17beta-HSD1
[8] = target: T4, 17-beta-hydroxysteroid dehydrogenase type 1 (Homo sapiens, UniProt P14061); assay: Displacement of [3H]E1 from 17beta-HSD1 in human T47D cells after 10 mins by fluid scintillation counting; type: cell-based
T4 sequence (P14061 whole entry): T2 sequence (whole entry)

[9] = target: T4, 17-beta-hydroxysteroid dehydrogenase type 1; assay: Displacement of [3H]E1 from human placental 17beta-HSD1 after 10 mins by fluid scintillation counting
[10] = system: Liver microsomes; assay: Metabolic stability in human liver microsomes up to 45 mins by LC-MS/MS analysis; type: ADME, Microsome; conditions: 0.75 h
[11] = target: T2, 17-beta-hydroxysteroid dehydrogenase type 1 (Homo sapiens); assay: Inhibition of [3H]E1 binding to human recombinant 17beta-HSD1 expressed in baculovirus-infected Sf9 cells at 1 uM after 10 mins by fluid scintillation counting
[12] = Half life in Wistar rat at 50 mg/kg, po administered as single dose by LC-MS/MS analysis; type: ADME, organism-based; design: dose 50 mg/kg, route oral; conditions: in vivo
[13] = target: T5, 17-beta-hydroxysteroid dehydrogenase type 2 (Homo sapiens, UniProt P37059); assay: Displacement of [3H]E2 from human placental 17beta-HSD2 after 10 mins by fluid scintillation counting
T5 sequence (P37059 whole entry): T1 sequence (whole entry)

[14] = AUC (0 to t) in Wistar rat at 50 mg/kg, po administered as single dose by LC-MS/MS analysis; type: ADME, organism-based; design: dose 50 mg/kg, route oral; conditions: plasma
[15] = Tmax in Wistar rat at 50 mg/kg, po administered as single dose by LC-MS/MS analysis; type: ADME, organism-based; design: dose 50 mg/kg, route oral; conditions: in vivo
[16] = Cmax in Wistar rat at 50 mg/kg, po administered as single dose by LC-MS/MS analysis; type: ADME, organism-based; design: dose 50 mg/kg, route oral; conditions: in vivo
[17] = system: Rattus norvegicus; assay: Clast in Wistar rat at 50 mg/kg, po administered as single dose by LC-MS/MS analysis; type: ADME, organism-based; design: dose 50 mg/kg, route oral; conditions: in vivo
[18] = target: T6, Cytochrome P450 1A2 (Homo sapiens, UniProt P05177); assay: Inhibition of human CYP1A2; type: ADME
T6 sequence (P05177 whole entry): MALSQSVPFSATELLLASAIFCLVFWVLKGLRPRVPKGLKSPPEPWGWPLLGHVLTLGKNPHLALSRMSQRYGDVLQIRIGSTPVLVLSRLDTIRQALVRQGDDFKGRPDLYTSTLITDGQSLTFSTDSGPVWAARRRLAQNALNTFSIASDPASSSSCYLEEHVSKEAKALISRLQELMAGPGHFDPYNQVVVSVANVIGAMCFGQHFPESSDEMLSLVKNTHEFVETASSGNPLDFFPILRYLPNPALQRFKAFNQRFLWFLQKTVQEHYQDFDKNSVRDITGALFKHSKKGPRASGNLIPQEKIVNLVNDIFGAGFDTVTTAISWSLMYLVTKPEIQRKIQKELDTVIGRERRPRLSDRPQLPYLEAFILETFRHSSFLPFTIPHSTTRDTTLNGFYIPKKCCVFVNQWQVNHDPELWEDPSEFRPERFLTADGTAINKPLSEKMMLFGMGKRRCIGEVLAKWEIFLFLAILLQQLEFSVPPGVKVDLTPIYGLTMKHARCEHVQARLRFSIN

[19] = system: Rattus norvegicus; assay: Tlast in Wistar rat at 50 mg/kg, po administered as single dose by LC-MS/MS analysis; type: ADME, organism-based; design: dose 50 mg/kg, route oral; conditions: in vivo
[20] = Half life in Sprague-Dawley rat liver microsomes by LC-MS/MS analysis; type: ADME, Microsome
[21] = system: Liver microsomes; assay: Intrinsic clearance in Sprague-Dawley rat liver microsomes after 60 mins by LC-MS/MS analysis; type: ADME, Microsome; conditions: 1 h

Estrogen receptor beta (Homo sapiens), sequence (Q92731 whole entry): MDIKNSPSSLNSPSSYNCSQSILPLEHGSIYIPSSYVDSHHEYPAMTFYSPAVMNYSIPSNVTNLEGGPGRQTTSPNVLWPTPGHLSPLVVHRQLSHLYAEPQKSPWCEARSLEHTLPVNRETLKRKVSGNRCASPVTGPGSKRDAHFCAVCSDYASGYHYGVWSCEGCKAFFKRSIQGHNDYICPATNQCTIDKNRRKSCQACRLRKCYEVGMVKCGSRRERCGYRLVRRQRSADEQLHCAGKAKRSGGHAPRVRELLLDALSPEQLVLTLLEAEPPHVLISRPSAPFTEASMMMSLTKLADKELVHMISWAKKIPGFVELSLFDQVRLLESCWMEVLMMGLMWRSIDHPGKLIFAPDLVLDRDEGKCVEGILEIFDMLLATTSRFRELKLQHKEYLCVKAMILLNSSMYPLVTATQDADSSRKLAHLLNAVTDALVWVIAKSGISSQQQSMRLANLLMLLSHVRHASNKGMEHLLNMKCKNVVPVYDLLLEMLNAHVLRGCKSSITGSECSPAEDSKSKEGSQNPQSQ

inhibition [1]	inhibition [2]	inhibition [3]	Papp at 3 h [4]	RBA [5]	RBA [6]	Ratio IC50 [7]	IC50 [8]	IC50 [9]	inhibition [11]	SMILES	further results
71%	31%	88%	19 ×10⁻⁶ cm/s	0.01%	< 0.01%	27	71 nM	15 nM	91%	CS(=O)(=O)Nc1cccc(-c2c(O)ccc3cc(-c4cccc(O)c4)ccc23)c1	Stability [10]: Stable
90%	66%	87%	14 ×10⁻⁶ cm/s	0.01%	0.01%	45	165 nM	26 nM	92%	Oc1cccc(-c2ccc3c(-c4cccnc4)c(O)ccc3c2)c1	half-life [12]: 1.5 h; IC50 [13]: 1160 nM; AUC(0-t) [14]: 203 ng·h/mL; Tmax [15]: 2 h; Cmax [16]: 16 ng/mL; Cz [17]: 18 ng/mL; IC50 [18]: 10 nM; tz [19]: 8 h; half-life [20]: 0.233 h; CL [21]: 340 µL/min
